# Peptide text beside a SMILES is read from it.
# Assays:
# Assay type in all cases: in vivo
# albino rabbits [1] = test: Intracutaneous reactivity test; conditions: for primary irritation index (Treated-Control): 0.2 ml intracutaneous; for erythema and oedema at treated sites: 24, 48 and 72 hours, same in vehicle control sites
# Method: In order to test the potential irritation effects of the formulation according to certain embodiments of the present invention, an intracutaneous reactivity test was performed. Two extracts of a 3% w/v PFD5 hydrogel sample, one in a non-polar vehicle, cottonseed oil, and one in a polar vehicle, sodium chloride injection (0.9%), were prepared by immersing the sample in the relative solvents in order to reach a weight/volume ratio of 0.2 g/ml and incubating at 37±1° C. for 72±2 h in dynamic conditions (orbital stirrer). 0.2 ml of the two extracts and 0.2 ml of the respective solvents were intracutaneously injected in five sites of 3 albino rabbits, and macroscopical skin reactions, as erythema, oedema and eschar were evaluated. No abnormalities immediately after intradermal injection of sodium chloride injection extract and sodium chloride injection (vehicle control) were observed. […] The primary irritation index in sodium chloride injection (Treated-Control) was 0.00. No abnormalities immediately after intradermal injection of cottonseed oil extract and cottonseed oil (vehicle control) were observed. […] The primary irritation index in cottonseed oil (Treated-Control) was 0.00.
# albino rabbits [2] = test: Implantation test (local implantation effects, femur); conditions: 3% w/v PFD5 formulation
# Method: In order to test the local implantation effects of a 3% w/v PFD5 formulation according to certain embodiments of the present invention, an implantation test was performed.
# 10 albino rabbits were used for the test: each animal was implanted with the test sample at the right femur and with negative control (USP reference standard control plastic, HDPE) at the left femur, for a total of two sites/animal.
# One explant time was scheduled after 4 weeks. Animals were daily submitted to general objective exam with the purpose to detect possible local effects due to the sample. The behavior of animals was observed and all abnormalities were recorded. During the explant, all implanted sites with the test sample and with the negative control were harvested and observed macroscopically to determine any injuries. Implantation sites of each animal and local lymph nodes were preserved in formalin 10% buffer solution and used for histological evaluation. […] Nothing abnormal was detected macroscopically in both treated and control sites of all animals.
# rats = test: Tissue augmentation in subcutaneous rat model; conditions: PFD5 3.5% w/v
# Method: The effect of PFD5 3.5% w/v hydrogel on tissue augmentation was tested in a subcutaneous rat model and compared to the effect obtained in rats treated with a commercially available hyaluronic acid dermal filler. Individual rats were treated with 0.2 ml of PFD5 hydrogel or HA injection administered subcutaneously above the parietal bone. Animals were held for three days, one month and four months after which implants were excised and underwent histological examination and analysis for the area occupied by the implant. […] Due to the lower swellability of the PFD5 hydrogel as compared to the HA hydrogel, the area remained more invariable.
smiles,measurement,setting,value
"O=C(O)C[C@H](NC(=O)[C@@H]1CCCN1)C(=O)N[C@@H](Cc1ccccc1)C(=O)N[C@@H](CC(=O)O)C(=O)N[C@@H](Cc1ccccc1)C(=O)N[C@@H](CC(=O)O)C(=O)N[C@@H](Cc1ccccc1)C(=O)N[C@@H](CC(=O)O)C(=O)N[C@@H](Cc1ccccc1)C(=O)N[C@@H](CC(=O)O)C(=O)N[C@@H](Cc1ccccc1)C(=O)N[C@@H](CC(=O)O)C(=O)N1CCC[C@H]1C(=O)O [PFD5, Pro-(Asp-Phe)5-Asp-Pro] (H-PDFDFDFDFDFDP-OH)",primary irritation index (Treated-Control),albino rabbits [1]; cottonseed oil extract of 3% w/v PFD5 hydrogel,0.00
same,erythema and oedema at treated sites,albino rabbits [1]; cottonseed oil extract,a slight erythema and a slight oedema
same,primary irritation index (Treated-Control),albino rabbits [1]; sodium chloride injection extract of 3% w/v PFD5 hydrogel,0.00
same,erythema and oedema at treated sites,albino rabbits [1]; sodium chloride injection extract,no signs of erythema or oedema
same,inflammatory responses or necrosis at the sites of implantation,albino rabbits [2]; 4 weeks,no inflammatory responses or necrosis
same,local effects compared to the negative control,"albino rabbits [2]; 4 weeks after implantation, control HDPE",Minimal local effects
same,adverse tissue reaction (histology),rats,deprived of multinucleated giant cells or other adverse effects to nearby tissue
